Patent US20230390315A1, “COMPOSITIONS AND METHODS FOR TREATING ISCHEMIC CONDITIONS” (The Regents of the University of California, priority 2020, published 2023)

Legend:
Calu6 = Calu6 proliferation assay; type: cell-based, human
Method: (§1) Proliferation assays with fibroblasts were done in low-glucose DMEM containing 1% FBS, with or without 10 ng/ml bFGF, or 100 ng/ml human EGF and the assay was ended at day 3. ARPE-19 cells were gently lifted with 0.025% trypsin and plated in RtEGM media (Clonetics) containing 2% FBS, L-glutamine, human bFGF and GA-1000. Once cells were attached to plates, serum-free RtEGM media was used to maintain the cultures. For proliferation assays, 1500 human RPE cells were plated into 96-well plates in low-glucose DMEM containing 1% FBS. A673, U87MG, Calu6 and AML12 cells were grown until confluent and were then harvested and re-suspended in appropriate assay media. For proliferation assays, cells were plated at the density of 1000-2000 cells/well in low-glucose DMEM containing 5% FBS or otherwise stated. Bovine pituitary cells (pituitary folliculostellate cells) were isolated as previously described. For proliferation assays with human epidermal keratinocytes, human DMVECs and human dermal fibroblast cells, 1000 cells/well were plated in low-glucose DMEM containing 1% FBS with or without various growth factors. The assay was ended at day 3 for bovine pituitary cells and at day 4 for all the other cell types. […] Four days later, tumor cell growth was measured by the MTS assay (Promega, Madison, WI), a colorimetric assay that measures metabolic activity of viable cells. […]

NIH3T3 fibroblasts = test: NIH3T3 proliferation assay; type: cell-based, mouse; conditions: alone or in combination with growth factors
Method: as §1

HUVEC = HUVEC migration assay; type: cell-based, human; conditions: 40 uM ManN alone
Method: HUVECs (passage 6-8) were cultured and serum-starved as described in “Western Blots”. Ten thousand cells in 150 μl of EBM-2 medium were then added to the upper chamber of 8 μm pore size cell culture inserts (Falcon) coated with 0.1% gelatin. The lower compartment was filled with 600 μl EBM-2 medium containing various agents. The plates were incubated at 37° C. to allow migration. After 4 hrs, cells were fixed with 4% PFA for 20 min and then stained with crystal violet (Sigma-Aldrich) for 20 min at RT. Migrated cells on the bottom side of the insert membrane were quantified by counting whole area of the insert at 40× magnification. The experiments were carried out in triplicate and repeated three times. BCEC migration was set up similarly, except that wells were coated with FN, cells were suspended in 1% serum media and migration time was 18-24 hrs.

skin wound = test: Skin wound healing model (splinted wound); type: in vivo, mouse; conditions: day 4; topical 20 μg daily
Text: The model has been previously described. Briefly, C57BL/6 female mice (8-10 weeks old) were obtained from Jackson labs (Sacramento, CA). A fresh, full-thickness punch wound (4 mm diameter) using a punch (Acu Punch, Acuderm inc. Ft. Lauderdale, FL) splinted with a sterile neoprene ring (6-mm outer diameter and 4-mm inner diameter), fastened with 5-6 sutures (4-0 nylon) under the influence of Isoflurane was created on the back of the animal in a Class II Biological Safety Cabinet. For all surgical procedures, sterile technique was followed. Buprenorphine was given subcutaneously prior to awakening from anesthesia for anticipated pain. Mice were monitored until fully awake and were housed individually to minimize damage/biting/fighting to the surgical site. […] Treatment agents were prepared in PBS, sterile-filtered and 25 μl solution was applied daily directly to a wound bed for the first 4-5 days under the influence of Isoflurane, followed by daily observation. Wound closure was monitored by regular imaging and the wound area was quantified using ImageJ (National Institutes of Health, Bethesda, MD, USA). […] Epithelial gap was measured histomorphometrically using AxioVision LE Rel.4.4 software. […] Small vessels stained positive for CD31 were counted microscopically on 10 fields (20×) taken around the wound.

N[C@H](C=O)[C@@H](O)[C@H](O)[C@H](O)CO [ManN, 2-Amino-2-deoxy-D-mannose]
growth of Calu6 (Calu6): did not promote growth | proliferation of NIH3T3 cells (NIH3T3 fibroblasts): no increases in proliferation | HUVEC migration (HUVEC): stimulation of migration | average closure of the wound (skin wound): 75.6%
